{"source": "patent US20260166000A1", "about": "“1,8-CINEOLE CONTAINING COMPOSITION FOR THERAPEUTIC USE” (Maria Clementine Martin Klosterfrau Vertriebsgesellschaft …, priority 2020, published 2026)", "key": {"[1]": {"test_system": "Chronic polyposis otitis media without cholesteatoma", "assay": "Clinical use in chronic polyposis otitis media without cholesteatoma", "assay_type": "in vivo, human", "procedure": "(§1) In addition, the effect of 1,8-cineole is further investigated on the basis of the following areas of application, with 200 mg of 1,8-cineole being administered 3 times a day for the period indicated in each case (Soledum® forte): • 1. Chronic polypous sinusitis • 2. Chronic recurrent catarrhal sinusitis • 3. Chronic polyposis otitis media without cholesteatoma • 4. Chronic polyposis otitis media with cholesteatoma • Ad 1."}, "[2]": {"test_system": "cellular complexes of circulating platelets (CD41) with leukocytes", "assay": "Flow cytometry of cellular complexes of circulating platelets with leukocytes in blood", "assay_type": "in vivo, human", "conditions": "for cellular complexes, neutrophils (Neutros), after / cellular complexes, lymphocytes (Lymphos), after / cellular complexes, eosinophils (Eosinos), after / cellular complexes, monocytes (Monos), after: blood of patients with polyposis nasi, after 2-week administration", "excerpt": "Further, these cellular complexes will be specified in more detail by flow cytometer with respect to different leukocyte populations and with respect to the influence of 1,8-cineole."}, "genus Bacteroides": {"test_system": "genus Bacteroides", "assay": "Microbiome sequencing of stool samples, bacterial genera", "assay_type": "in vivo, human", "conditions": "patients with polyposis nasi; after 2-week therapy, 200 mg 3 times a day", "procedure": "(§2) As part of the studies, the stool samples of patients with polyposis nasi are analyzed under the influence of 1,8-cineole. For this purpose, a stool sample is first taken before starting the administration of 1,8-cineole and then again after 2 weeks of taking 1,8-cineole 3 times a day (Soledum® forte, content of 1,8-cineole: 200 mg).\n(§3) Stool Stabilizer (company: Stratec Molecular) is added to the stool samples and initially stored at a temperature of −20° C. until further processing. Subsequent DNA extraction is performed using the PSP Spin Stool DNA Plus kit according to the manufacturer's instructions (Stratec Molecular). Finally, the isolated DNA is used for microbiome sequencing (TG MiSeq Reagent Kit v3 & NEBNext® Library Quant Kit for Illumina) and analyzed.\n(§4) Following this initial evaluation regarding existing alterations or changes in the intestinal microbiome of patients with polyposis nasi after 2-week ingestion of 1,8-cineole, a detailed evaluation of the microbiome sequencing performed will be performed regarding the bacterial genera identified."}, "[3]": {"test_system": "Lachnospiraceae, Bifidobacterium or Faecalibacterium", "assay": "Microbiome sequencing of stool samples, bacterial genera", "assay_type": "in vivo, human", "conditions": "patients with polyposis nasi; after 2-week therapy, 200 mg 3 times a day", "procedure": "as §2, §3, §4"}, "[4]": {"test_system": "bacterial genus Prevotella", "assay": "Microbiome sequencing of stool samples, bacterial genera", "assay_type": "in vivo, human", "conditions": "patients with polyposis nasi; after 2-week ingestion, 200 mg 3 times a day", "procedure": "as §2, §3, §4"}, "[5]": {"test_system": "bacteria of the family Ruminococcacea or the genus Ruminococcus", "assay": "Microbiome sequencing of stool samples, bacterial genera", "assay_type": "in vivo, human", "conditions": "patients with polyposis nasi; after 2-week ingestion, 200 mg 3 times a day", "procedure": "as §2, §3, §4"}, "[6]": {"test_system": "Chronic polyposis otitis media with cholesteatoma", "assay": "Clinical use in chronic polyposis otitis media with cholesteatoma", "assay_type": "in vivo, human", "procedure": "as §1"}, "[7]": {"test_system": "Chronic recurrent catarrhal sinusitis", "assay": "Clinical use in chronic recurrent catarrhal sinusitis", "assay_type": "in vivo, human", "procedure": "as §1"}, "[8]": {"test_system": "patients with polyposis nasi", "assay": "Patient perception and clinical therapy of polyposis nasi", "assay_type": "in vivo, human", "procedure": "In addition to the molecular biological investigations, the individual perception and quality of life of the patients with regard to the 2-week intake of 1,8-cineole is also surveyed. […] In 38 patients (23 men/15 women between 28 and 72 years, average age 54 years) each with polyposis nasi a therapy with 1,8-cineole was performed (3 times 200 mg 1,8-cineole in the form of capsules “Soledum® forte”)."}, "[9]": {"test_system": "monocytes circulating in the blood", "assay": "Flow cytometry of monocyte subtypes (CD14/CD16) in blood", "assay_type": "in vivo, human", "procedure": "The monocytes circulating in the blood can be divided into the three different subtypes, namely “classical”, “intermediate” and “non-classical”, on the basis of their surface proteins CD14 and CD16 by flow cytometry. In flow cytometry, cells are analyzed for cell size, granularity and fluorescent labeling of specific epitopes by passing specific lasers. This allows different cell populations to be differentiated and characterized. […] These observations are now comprehensively analyzed in additional patients individually by flow cytometer, especially under the influence of 1,8-cineole. […] In this regard, reference can also be made to FIG. 5A/B."}, "[10]": {"test_system": "Chronic polypous sinusitis", "assay": "Clinical use in chronic polypous sinusitis", "assay_type": "in vivo, human", "procedure": "as §1"}, "[11]": {"conditions": "cited from earlier work"}, "[12]": {"test_system": "Patients with persistent bronchial asthma", "assay": "Clinical use in persistent bronchial asthma as add-on therapy", "assay_type": "in vivo, human"}, "intestinal microbiome": {"test_system": "intestinal microbiome", "assay": "Microbiome sequencing of stool samples, principal coordinates analysis (PCoA)", "assay_type": "in vivo, human", "conditions": "patients with polyposis nasi; before vs after 2-week ingestion, 200 mg 3 times a day (Soledum forte)", "procedure": "as §2, §3\nThe results are illustrated in FIG. 1 in the form of principal coordinate analysis (PCoA) of the examined stool samples of the patients (1 to 5) with polyposis nasi before (without labeling, unfilled circle symbols) and after 2-week ingestion of 1,8-cineole (marked with “*”, filled circle symbols)."}, "[13]": {"conditions": "2-week administration, preoperatively, previously refractory otorrhea (local and systemic antibiotics)"}, "[14]": {"conditions": "after tympanoplasty, renewed otorrhea with recurrent perforation, 4-week administration"}, "[15]": {"conditions": "2-week administration, preoperatively"}, "[16]": {"conditions": "after tympanoplasty, renewed otorrhea with recurrent perforation, 4 weeks of administration"}, "[17]": {"conditions": "200 mg 3 times a day, 2-week administration, preoperatively"}, "[18]": {"conditions": "38 patients with polyposis nasi, 3 times 200 mg, Soledum forte capsules"}, "[19]": {"conditions": "one case, small polyps on the olfactory groove, after 2 weeks"}, "[20]": {"conditions": "twelve weeks of continuous therapy"}}, "note": "“Also recorded” adds a separate entry of the source.", "data": [{"smiles": "CC12CCC(CC1)C(C)(C)O2", "note": "[1,8-cineole, 1,3,3-trimethyl-2-oxabicyclo[2.2.2]octane]", "values": [{"measurement": "otorrhea", "setting": "[1]; [13]", "result": "decrease in otorrhea, allowing surgery"}, {"measurement": "otorrhea", "setting": "[1]; [14]", "result": "decrease in otorrhea"}, {"measurement": "tympanic membrane", "setting": "[1]; [14]", "result": "spontaneous tympanic membrane closure"}, {"measurement": "cellular complexes, neutrophils (Neutros), after", "setting": "[2]; Table 2 (data n2), before 5.37%", "result": 5.09, "unit": "%"}, {"measurement": "cellular complexes, lymphocytes (Lymphos), after", "setting": "[2]; Table 2 (data n2), before 5.4%", "result": 5.12, "unit": "%"}, {"measurement": "cellular complexes, eosinophils (Eosinos), after", "setting": "[2]; Table 2 (data n2), before 10.7%", "result": 4.8, "unit": "%"}, {"measurement": "cellular complexes, monocytes (Monos), after", "setting": "[2]; Table 2 (data n2), before 16.8%", "result": 6.28, "unit": "%"}, {"measurement": "cellular complexes, eosinophils (Eosinos), after", "setting": "[2]; data n1, before 7.3%", "result": 5.92, "unit": "%"}, {"measurement": "cellular complexes, lymphocytes (Lymphos), after", "setting": "[2]; data n1, before 12.4%", "result": 5.54, "unit": "%"}, {"measurement": "cellular complexes, neutrophils (Neutros), after", "setting": "[2]; data n1, before 13.9%", "result": 5.02, "unit": "%"}, {"measurement": "cellular complexes, monocytes (Monos), after", "setting": "[2]; data n1, before 14.7%", "result": 8.79, "unit": "%"}, {"measurement": "monocyte complexes in blood", "setting": "[2]; patients with polyposis nasi, after taking over a period of two weeks", "result": "massive reduction"}, {"measurement": "occurrence of Bacteroides in the intestinal microbiome", "setting": "genus Bacteroides", "result": "significantly more abundant"}, {"measurement": "occurrence of Lachnospiraceae, Bifidobacterium or Faecalibacterium", "setting": "[3]", "result": "certain changes or shifts with a tendency to increase"}, {"measurement": "presence of Prevotella in the intestine", "setting": "[4]", "result": "significantly reduced; also recorded: almost complete disappearance"}, {"measurement": "bacteria of the family Ruminococcacea or genus Ruminococcus", "setting": "[5]", "result": "significant increase"}, {"measurement": "cholesteatom masses", "setting": "[6]; [15]", "result": "no reduction"}, {"measurement": "inflamed mucosa of middle ear and mastoid", "setting": "[6]; [15]", "result": "positive effect"}, {"measurement": "concomitant otorrhea", "setting": "[6]; [13]", "result": "decrease in concomitant otorrhea, allowing surgery"}, {"measurement": "otorrhea", "setting": "[6]; [16]", "result": "decrease of otorrhea"}, {"measurement": "tympanic membrane", "setting": "[6]; [16]", "result": "spontaneous tympanic membrane closure"}, {"measurement": "concomitant symptoms of polyps (anterior and posterior watery rhinorrhea)", "setting": "[7]; [17]", "result": "decrease in concomitant symptoms"}, {"measurement": "olfactory performance", "setting": "[7]; [17]", "result": "significant improvement"}, {"measurement": "use of nasal steroids", "setting": "[7]; postoperative", "result": "reduction of nasal steroids"}, {"measurement": "wound healing", "setting": "[7]; postoperative", "result": "positive influence"}, {"measurement": "nasal breathing", "setting": "[8]; [18]", "result": "correspondingly improved"}, {"measurement": "secretion drainage", "setting": "[8]; [18]", "result": "significantly improved"}, {"measurement": "nasal polyps", "setting": "[8]; [19]", "result": "significant decrease"}, {"measurement": "olfactory sensation", "setting": "[8]; [19]", "result": "marked improvement"}, {"measurement": "patients' response (individual perception and quality of life)", "setting": "[8]; polyposis patients consulted, 2-week intake", "result": "predominantly positive"}, {"measurement": "monocyte distribution, additional patients analysed individually", "setting": "[9]; additional patients, 2-week therapy (FIG. 5A/B)", "result": "restoration of the monocyte distribution"}, {"measurement": "CD16 \"classical\" monocytes (CD16 neg.)", "setting": "[9]; after 2-week therapy (FIG. 5A)", "result": "significant increase"}, {"measurement": "\"intermediate\" monocytes (CD16 pos.)", "setting": "[9]; after 2-week therapy (FIG. 5B)", "result": "clear decrease"}, {"measurement": "distribution of monocyte subpopulations", "setting": "[9]; patients with polyposis nasi, after 2-week intake, compared with healthy donors (FIG. 4)", "result": "marked normalization or reversion"}, {"measurement": "accompanying symptoms of the polyps (anterior and posterior watery rhinorrhea)", "setting": "[10]; [17]", "result": "reduction of the accompanying symptoms"}, {"measurement": "olfactory performance", "setting": "[10]; 200 mg 3 times a day, 2-week administration, preoperatively, individual cases", "result": "In individual cases also improvement"}, {"measurement": "wound healing", "setting": "[10]; postoperative", "result": "positive influence"}, {"measurement": "recurrences and systemic cortisone administration", "setting": "[10]; postoperative, in combination with a nasal steroid", "result": "reduction of recurrences and systemic cortisone administration"}, {"measurement": "solubility in water", "setting": "[11]", "result": "insoluble"}, {"measurement": "tolerability", "setting": "[12]; 4 times 200 mg/die perorally", "result": "well tolerated without side effects"}, {"measurement": "lung function", "setting": "[12]; 4 times 200 mg/die perorally, one week, with inhaled glucocorticoid, long-acting beta-2-sympathomimetic and theophylline", "result": "slight to moderate improvement"}, {"measurement": "reduction of inhaled glucocorticoid requirements", "setting": "[12]; 4 times 200 mg/die perorally, twelve weeks of continuous therapy", "result": "more than 50%"}, {"measurement": "glucocorticoid use in some of the patients treated", "setting": "[12]; [20]", "result": "temporarily discontinued altogether"}, {"measurement": "need for betamimetics in some patients", "setting": "[12]; [20]", "result": "significantly reduced"}, {"measurement": "shift of beta diversity (PCoA) of stool samples", "setting": "intestinal microbiome", "result": "clear shift"}]}]}
